Results on one molecule are retold here after paper PMC5707067, “Farnesyl phenolic enantiomers as natural MTH1 inhibitors from Ganoderma sinense” (Oncotarget, 2017).

The structures appear in SMILES notation.

What is called IC50 is the concentration that inhibits the measured activity by half. A higher IC50 goes with a need for much substance.

For data set [1], the system named is SW620 cells. Put plainly: Apoptosis analysis (Annexin V/PI flow cytometry). The format is cell-based, human. The settings on record: 24 hours, control group 12.03%. As to the method: The apoptosis of cells induced by compounds was further investigated. SW620 cells were pretreated with series concentration of compound 1 for 24 hours. The number of apoptosis cells was quantified by flow cytometry.
Figure 5 Compound 1 induced DNA damage and hindered the replication of DNA in cancer cells causing cell apoptosis (A) SW620 cells were treated with 0, 50 or 150 μM of compound 1 and then processed for FACS by using Annexin V/propidium iodide staining. (B, C) Immunofluorescence staining analysis of EDU^+ and quantification of EDU^+ in SW620 cells treated with 0, 50 or 150 μM of compound 1. Stained graphs were observed through a fluorescence microscope (× 200 magnification). Bar = 20 μm. Data are shown as mean ± s.d. (n = 3). (D, E, F) Immunofluorescence staining analysis of 53BP1 and quantification of 53BP1 foci formation in SW620 treated for 24 h with 50 μM of compound 1. It was observed through a confocal microscope (× 400 magnification). Bar = 50 μm Data are shown as mean ± s.d. (n = 3). […]
Apoptotic cells were staining with Annexin-V-FITC and Propidium Iodide (PI) (Annexin V-FITC/PI double staining cell apoptosis detection kit) following the manufacturer's protocol. Fluorescence was recorded by flow cytometry using the FACSort (BD Bio sciences).
(Flow cytometry measures light scatter and fluorescence of single cells or particles in a stream.)

The target of data set [2] is T1, MTH1 in SW620 cells (Homo sapiens, UniProt P36639).
T1 construct: endogenous in cells; host or cells: SW620
Put plainly: Cellular thermal shift assay (CETSA). The settings on record: 30 μM, 12 hours, 44-54°C, vs DMSO, Western blot. The format is cell-based. On the procedure:
The cellular thermal shift assay (CETSA) was recently developed to further confirm the interaction between the target and the compound in vitro by Western blot assay. CETSA was applied based on the principles that the ligand binding gave rise to the thermal stabilization of target proteins. The thermal stability of MTH1 in SW620 cells was tested at the temperature range of 44-54°C after the pretreatment of compound 1 for 12 hours (Figure 6E and 6F). Correspondingly, the control cells were treated with DMSO. […] Compared with the control group, the thermal stability of MTH1 protein in compound 1 pretreated cells was better under the same temperature condition.
CETSA was developed as a method to directly detect the binding capacity of compounds with targets at the cellular level, based on the principle of ligand-induced target protein stabilization. […] Subsequently, cells were analysed by Western blot assay.
The harvested cells were lysed with liquid nitrogen and the freeze-thaw cycles were repeated twice. […] Proteins was quantified by Bradford reagent (Bio-Rad, USA). The same amount of proteins (20-40 μg) were loaded onto 15% SDS-PAGE gels and transferred to polyvinylidene difluoride membranes (PVDF) (Millipore, USA) and analyzed using the MTH1-antibody (Proteintech) at a concentration of 1: 500. […]
(In general: Immunoblotting shows a protein as a band on a membrane.)

In data set [3] the test system is SW620 cells. As to the kind of experiment: EdU cell proliferation assay. Particulars: 50 μM or 150 μM vs control, P<0.001. Format: cell-based, human. As to the method: EdU cell proliferation assays were carried out to detect the effects of compounds on DNA replication. EdU (5-Ethynyl-2- deoxyuridine), a thymidine analog, can penetrate into the replicating DNA molecule. Based on the specific response of EdU and fluorescent dyes, DNA replication activity could be detected.
SW620 cells were pretreated with 0, 50, 150 μM of compound 1, respectively. Dissociated cells were handled with EdU cell proliferation kit (RiboBio) according to the manuscript by according to the manufacturer's instructions. Then the morphology was observed by fluorescence microscopy (Zeiss, OBSERVER D1/AX10 cam HRC).

Data set [4] is described as follows: CCK8 cytotoxicity assay, Lo2. The format is cell-based, human. The settings on record: human, Lo2 human hepatic cells (normal tissue cell line), CCK8, 48 h. The text has this:
(§1) The growth inhibitory effects of the isolated farnesyl phenolic compounds (1–8) against carcinoma cell lines [human osteosarcoma cells (U2OS), human colorectal carcinoma cells (SW620), human ES-2 ovarian carcinoma cells (ES-2)] and normal tissue cell lines [human hepatic cells (Lo2), African green monkey kidney vero cells (Vero)] were further investigated using CCK8 assay method (Table 3).
(§2) Carcinoma cell lines [human osteosarcoma cells (U2OS), human colorectal carcinoma cells (SW620), human ES-2 ovarian carcinoma cells (ES-2)] and normal tissue cell lines [human hepatic cells (Lo2), African green monkey kidney Vero cells (Vero)] The U2OS, SW620, ES-2, Lo2 and Vero were obtained from ATCC (Manassas, VA, USA). The SW620 and Vero cells were cultured in Roswell Park Memorial Institute medium (RPMI), with 10% fetal bovine serum (Hyclone) and 1% penicillin-streptomycin (Sigma). Lo2, U2OS and ES-2 cells were grown in Dulbecco's modified eagle medium (DMEM), with 10% fetal bovine serum (Hyclone) and 1% penicillin-streptomycin (Sigma). All of these cells were cultured at 37°C in a humidified atmosphere with 5% CO2. For CCK8 assay cytotoxicity evaluation of compounds, all cells were separately plated at a density of 1 × 10^4 cells/well in a 96 well plate. Cells were cultivated at 37°C in 5% CO2 atmosphere for 24 h, then medium in the wells was replaced with fresh medium containing compounds which were diluted in 8 dilution steps covering the range from 200 μM to 1.5625 μM. And DMSO was used as negative control. After 48 h incubation, 10 μL of CCK8 solution was added to each well. After 30 min, the optical density (OD) of each well was measured at wavelength of 450 nm on spectrophotometer. Data were corrected for background (no-cell control) and expressed as a percentage of the value for untreated cells. The IC50 values of the isolated compounds were derived from the mean OD values of the triplicate tests versus the drug concentration curves.
In general terms: Formazan colour is commonly taken as a measure of viable cells.

Data set [5] can be described thus: CCK8 cytotoxicity assay, Vero. The format is cell-based, African green monkey. The settings on record: African green monkey, Vero kidney cells (normal tissue cell line), CCK8, 48 h.
From the text: as §1, §2

With `CO[C@]1(c2cc(O)cc(O)c2)C=C(CCCC(CO)CC/C=C(\C)COC(=O)/C=C/c2ccc(O)cc2)C(=O)O1` (stereo partly drawn) [Compound 1, (5R)-3-{9-[(E)-coumaroyl]-4-hydroxymethyl-8-methyl-7-nonene}-5-(3,5-dihydroxyphenyl)-5-methoxy-2(5H)-furanone], the “SW620 cells apoptotic death” value in data set [1] (50 μM) is reported as 45.09%; in data set [1] (150 μM), 91.11%. For the same molecule, the “thermal stability of MTH1 protein” value in data set [2] is on record as “better”. Further, the “percentage of EdU+ cells” value in data set [3] is reported as “significantly deceased”. The IC50 at 48 h in data set [4] is 150.3 ± 1.09 µM; in data set [5] it was above 300 µM.
